SMILES strings stand for the structures.

For this assay, the target named is VHL (co-expressed with Elongin B and Elongin C) (Homo sapiens (Human), UniProt P40337). As to the kind of experiment: Measurement of intermolecular interactions using surface plasmon resonance (Biacore T200), Kd value for VHL. It is filed as binding. The conditions noted are these: SPR, immobilized VHL, 25° C.; read-out: Kd. The text has this: As the device, Biacore T200 (manufactured by GE Healthcare) was used. VHL was obtained by co-expressing Elongin B and Elongin C with a Twin-Strep-tag added to the N-terminus. As the sensor chip, Sensor chip CM5 (manufactured by GE Healthcare) was used. First, Strep-Tactin XT (manufactured by GE Healthcare) was immobilized on the sensor chip by amine coupling. Thereafter, VHL was immobilized using the affinity of Strep-Tactin XT and Twin-Strep-tag, and VHL was further immobilized on the sensor chip by amine coupling.
VHL (co-expressed with Elongin B and Elongin C), sequence (P40337 whole entry, looked up): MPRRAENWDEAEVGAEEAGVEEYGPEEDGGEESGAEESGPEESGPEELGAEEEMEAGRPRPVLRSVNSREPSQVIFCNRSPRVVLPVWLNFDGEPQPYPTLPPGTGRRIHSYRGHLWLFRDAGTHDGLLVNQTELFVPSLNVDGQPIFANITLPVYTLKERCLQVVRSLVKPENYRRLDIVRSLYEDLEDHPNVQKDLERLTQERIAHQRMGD
VHL (co-expressed with Elongin B and Elongin C), sequence (Q15370 whole entry partner, looked up): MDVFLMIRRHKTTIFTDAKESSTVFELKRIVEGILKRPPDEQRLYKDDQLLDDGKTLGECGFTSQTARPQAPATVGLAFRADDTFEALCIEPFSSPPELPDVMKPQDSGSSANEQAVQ
VHL (co-expressed with Elongin B and Elongin C), sequence (Q15369 whole entry partner, looked up): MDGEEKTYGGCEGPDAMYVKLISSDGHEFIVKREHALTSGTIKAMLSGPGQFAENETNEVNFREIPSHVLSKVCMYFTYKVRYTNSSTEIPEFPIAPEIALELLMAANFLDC
As the running buffer, a mixed solution of 20 mM HEPES pH 7.5, 150 mM NaCl, 1 mM TCEP, 0.005% Tween 20, and 2% DMSO was used. […] The Contact time and the Dissociation time were determined according to the properties of the compounds. For many compounds, 60 seconds and 120 seconds were respectively used.
In the case of `COc1cc(C(C(=O)N2C[C@H](O)C[C@H]2c2nc(C(=O)N3CC(c4ccccc4)C3)c[nH]2)C(C)C)on1` (stereo partly drawn) [Example 108, 1-[(2S,4R)-4-hydroxy-2-[4-(3-phenylazetidine-1-carbonyl)-1H-imidazol-2-yl]pyrrolidin-1-yl]-2-(3-methoxyisoxazol-5-yl)-3-methylbutan-1-one], the dissociation constant Kd was < 1 µM. In the case of `COc1cccc(-c2nc([C@@H]3C[C@@H](O)CN3C(=O)C(c3cc(OC)no3)C(C)C)[nH]c2-c2cccc(OC)c2)c1` (stereo partly drawn) [Example 76, 1-[(2S,4R)-2-[4,5-bis(3-methoxyphenyl)-1H-imidazol-2-yl]-4-hydroxypyrrolidin-1-yl]-2-(3-methoxy-1,2-oxazol-5-yl)-3-methylbutan-1-one], the Kd is 1 to 10 µM. `CNC(=O)c1nc([C@@H]2C[C@@H](O)CN2C(=O)C(c2cc(OC)no2)C(C)C)[nH]c1-c1ccc(OC)cc1` (stereo partly drawn) [Example 75, 2-[(2S,4R)-4-hydroxy-1-[2-(3-methoxy-1,2-oxazol-5-yl)-3-methylbutanoyl]pyrrolidin-2-yl]-5-(4-methoxyphenyl)-N-methyl-1H-imidazole-4-carboxamide]: the Kd was 1 to 10 µM. With `CC(=O)N[C@H](C(=O)N1C[C@H](O)C[C@H]1c1nc(C(=O)N(C)Cc2cccc3ccccc23)c[nH]1)C(C)(C)C` [Example 31, 2-[(2S,4R)-1-[(2S)-2-acetamido-3,3-dimethylbutanoyl]-4-hydroxypyrrolidin-2-yl]-N-methyl-N-(naphthalen-1-ylmethyl)-1H-imidazole-4-carboxamide] the figure was 1 to 10 µM.

Turning to `COc1cc(C(C(=O)N2C[C@H](O)C[C@H]2c2nc(C(=O)N(C)CC3CCN(Cc4ccccc4F)CC3)c[nH]2)C(C)C)on1` (stereo partly drawn) [Example 155, N-[[1-[(2-fluorophenyl)methyl]-4-piperidyl]methyl]-2-[(2S,4R)-4-hydroxy-1-[2-(3-methoxyisoxazol-5-yl)-3-methylbutanoyl]pyrrolidin-2-yl]-N-methyl-1H-imidazole-4-carboxamide], the Kd lay within 1 to 10 µM. The result for `COc1ccc(Cc2cnc([C@@H]3C[C@@H](O)CN3C(=O)C(c3cc(OC)no3)C(C)C)[nH]2)cc1` (stereo partly drawn) [Example 62, 1-[(2S,4R)-4-hydroxy-2-[5-[(4-methoxyphenyl)methyl]-1H-imidazol-2-yl]pyrrolidin-1-yl]-2-(3-methoxy-1,2-oxazol-5-yl)-3-methylbutan-1-one] reads 1 to 10 µM. With `CC(=O)N[C@H](C(=O)N1C[C@H](O)C[C@H]1c1ncc(Cc2cccc(-c3scnc3C)c2)[nH]1)C(C)(C)C` [Example 91, N-[(2S)-1-[(2S,4R)-4-hydroxy-2-[5-[[3-(4-methyl-1,3-thiazol-5-yl)phenyl]methyl]-1H-imidazol-2-yl]pyrrolidin-1-yl]-3,3-dimethyl-1-oxobutan-2-yl]acetamide] the figure was 1 to 10 µM; with `COc1cc(C(C(=O)N2C[C@H](O)C[C@H]2c2ncc[nH]2)C(C)C)on1` (stereo partly drawn) [Example 112, 1-[(2S,4R)-4-hydroxy-2-(1H-imidazol-2-yl)pyrrolidin-1-yl]-2-(3-methoxyisoxazol-5-yl)-3-methylbutan-1-one], 1 to 10 µM; with `CC(=O)N[C@H](C(=O)N1C[C@H](O)C[C@H]1c1nc(C(=O)N(C)Cc2ccc(F)cc2)c[nH]1)C(C)(C)C` [Example 19, 2-[(2S,4R)-1-[(2S)-2-acetamido-3,3-dimethylbutanoyl]-4-hydroxypyrrolidin-2-yl]-N-[(4-fluorophenyl)methyl]-N-methyl-1H-imidazole-4-carboxamide], 1 to 10 µM. On to `CC(=O)N[C@H](C(=O)N1C[C@H](O)C[C@H]1c1ncc(Cc2ccc(Br)cc2)[nH]1)C(C)(C)C` [Example 81, N-[(2S)-1-[(2S,4R)-2-[5-[(4-bromophenyl)methyl]-1H-imidazol-2-yl]-4-hydroxypyrrolidin-1-yl]-3,3-dimethyl-1-oxobutan-2-yl]acetamide], for which the Kd fell in the range of 1 to 10 µM.

Regarding `COc1cc(C(C(=O)N2C[C@H](O)C[C@H]2c2nccn2Cc2ccnc(-c3ccc(C(F)(F)F)cc3)c2)C(C)C)on1` (stereo partly drawn) [Example 102, 1-[(2S,4R)-4-hydroxy-2-[1-[[2-[4-(trifluoromethyl)phenyl]-4-pyridyl]methyl]imidazol-2-yl]pyrrolidin-1-yl]-2-(3-methoxyisoxazol-5-yl)-3-methylbutan-1-one], the Kd lay within 10 to 50 µM. The result for `CNC(=O)c1cccc(-c2cnc([C@@H]3C[C@@H](O)CN3C(=O)C(c3cc(OC)no3)C(C)C)[nH]2)c1` (stereo partly drawn) [Example 80, 3-[2-[(2S,4R)-4-hydroxy-1-[2-(3-methoxy-1,2-oxazol-5-yl)-3-methylbutanoyl]pyrrolidin-2-yl]-1H-imidazol-5-yl]-N-methylbenzamide] reads 1 to 10 µM; that for `COc1cc(C(C(=O)N2C[C@H](O)C[C@H]2c2ncc(Cc3ccc(C(F)(F)F)cc3)[nH]2)C(C)C)on1` (stereo partly drawn) [Example 79, 1-[(2S,4R)-4-hydroxy-2-[5-[[4-(trifluoromethyl)phenyl]methyl]-1H-imidazol-2-yl]pyrrolidin-1-yl]-2-(3-methoxy-1,2-oxazol-5-yl)-3-methylbutan-1-one], 1 to 10 µM; that for `COc1ccc(-c2cnc([C@@H]3C[C@@H](O)CN3C(=O)C(c3cc(OC)no3)C(C)C)[nH]2)cc1` (stereo partly drawn) [Example 78, 1-[(2S,4R)-4-hydroxy-2-[5-(4-methoxyphenyl)-1H-imidazol-2-yl]pyrrolidin-1-yl]-2-(3-methoxy-1,2-oxazol-5-yl)-3-methylbutan-1-one], 1 to 10 µM. With `COc1cc(C(C(=O)N2C[C@H](O)C[C@H]2c2nc(C(=O)N(C)CCNc3ccccc3)c[nH]2)C(C)C)on1` (stereo partly drawn) [Example 158, N-(2-anilinoethyl)-2-[(2S,4R)-4-hydroxy-1-[2-(3-methoxyisoxazol-5-yl)-3-methylbutanoyl]pyrrolidin-2-yl]-N-methyl-1H-imidazole-4-carboxamide] the figure was < 1 µM; with `CC(=O)N[C@H](C(=O)N1C[C@H](O)C[C@H]1c1ncc(-c2cccc(-c3scnc3C)c2)[nH]1)C(C)(C)C` [Example 6, N-[(2S)-1-[(2S,4R)-4-hydroxy-2-[5-[3-(4-methyl-1,3-thiazol-5-yl)phenyl]-1H-imidazol-2-yl]pyrrolidin-1-yl]-3,3-dimethyl-1-oxobutan-2-yl]acetamide], 1 to 10 µM.

For the origin of these results see US20230312542A1, “HYDROXYPYRROLIDINE DERIVATIVE AND MEDICINAL APPLICATION THEREOF” (MITSUBISHI TANABE PHARMA CORPORATION, priority 2020, published 2023).
